Data on 16 compounds can be found in ChEMBL document CHEMBL1140268, “Novel and potent cyclic cyanamide-based cathepsin K inhibitors” (Bioorg Med Chem Lett, 2005).

Broadly, the IC50 is the midpoint of a concentration-inhibition curve. A high value points to lower potency.

Bounds are passed on as bounds.

One assay has as its target T1, Cathepsin K (Homo sapiens, UniProt P43235).
T1 sequence (P43235 whole entry): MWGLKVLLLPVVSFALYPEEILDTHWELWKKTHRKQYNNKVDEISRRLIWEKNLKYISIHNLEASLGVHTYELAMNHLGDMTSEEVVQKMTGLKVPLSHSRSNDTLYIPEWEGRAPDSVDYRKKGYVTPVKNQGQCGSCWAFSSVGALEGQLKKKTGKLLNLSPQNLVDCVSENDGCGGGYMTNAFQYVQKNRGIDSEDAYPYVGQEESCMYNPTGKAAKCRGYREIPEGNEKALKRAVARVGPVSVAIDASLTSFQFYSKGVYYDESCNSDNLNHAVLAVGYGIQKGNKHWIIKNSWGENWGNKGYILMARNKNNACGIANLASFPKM
Description: Inhibitory concentration against human cathepsin K using 10 uM Cbz-Phe-Arg-AMC.

The next assay deals with T2, Pro-cathepsin H (Homo sapiens, UniProt P09668).
T2 sequence (P09668 whole entry): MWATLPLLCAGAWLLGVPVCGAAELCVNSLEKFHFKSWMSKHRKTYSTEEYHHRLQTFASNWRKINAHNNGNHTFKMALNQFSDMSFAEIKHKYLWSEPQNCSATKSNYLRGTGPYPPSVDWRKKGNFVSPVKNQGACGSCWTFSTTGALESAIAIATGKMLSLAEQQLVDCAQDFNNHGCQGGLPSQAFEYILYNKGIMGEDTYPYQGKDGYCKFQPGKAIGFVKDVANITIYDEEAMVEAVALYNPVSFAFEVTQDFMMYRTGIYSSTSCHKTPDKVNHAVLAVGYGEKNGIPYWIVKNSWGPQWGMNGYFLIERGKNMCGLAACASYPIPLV
As to the kind of experiment: Inhibitory concentration against human cathepsin H using 50 uM L-Arg-beta-naphthalamide.

For a further assay, the target named is Cathepsin B (Homo sapiens, UniProt P07858). As to the kind of experiment: Inhibitory concentration against human cathepsin B using 10 uM Cbz-Phe-Arg-AMC.
A further assay concerns the target Procathepsin L (Homo sapiens, UniProt P07711). As to the kind of experiment: Inhibitory concentration against human cathepsin L using 5 uM Cbz-Phe-Arg-AMC.

Sequence of Procathepsin L (P07711 whole entry): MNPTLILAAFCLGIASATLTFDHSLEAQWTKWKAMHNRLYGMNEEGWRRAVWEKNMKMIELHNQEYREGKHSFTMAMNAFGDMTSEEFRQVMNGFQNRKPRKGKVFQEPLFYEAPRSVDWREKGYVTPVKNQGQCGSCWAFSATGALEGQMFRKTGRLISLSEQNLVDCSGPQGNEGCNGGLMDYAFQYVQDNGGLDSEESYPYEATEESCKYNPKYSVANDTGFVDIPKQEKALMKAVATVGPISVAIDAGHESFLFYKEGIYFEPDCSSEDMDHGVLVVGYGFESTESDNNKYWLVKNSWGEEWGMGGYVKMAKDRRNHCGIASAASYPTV

Turning to `CN(C(=O)[C@H]1CCCN1C#N)C(C)(C)C`, the IC50 at Cathepsin K is greater than 13000 nM.

Consider `C[C@@H](CC1CCCCC1)OC(=O)N[C@H]1CCN(C#N)C1`, for which the 50% inhibitory concentration (IC50) stood at 8300 nM against Pro-cathepsin H, 680 nM at Cathepsin B, 12 nM at Cathepsin K and 81 nM against Procathepsin L.

For the compound `CC[C@@H](CC1CCCCC1)OC(=O)NC1CCN(C#N)C1` (stereo not given in full), on Cathepsin K, half-maximal inhibition (IC50) required 8.9 nM.

Turning to `CCCC[C@H](C=O)NC(=O)OC(C)(C)C`, at Cathepsin K, the IC50 was 51 nM.

For the compound `CC(C)(C)NC(=O)[C@H]1CCCN1C#N`, on Cathepsin K, 8100 nM corresponded to half-maximal inhibition (IC50).

`N#CN1CCCC1` [CYANO-PYRROLIDINE] showed an IC50 at Cathepsin K of 2100 nM.

Turning to `CC(C)(C)OC(=O)N1CCCN1C#N`, the 50% inhibitory concentration (IC50) at Cathepsin K came to 380 nM.

For the compound `C[C@@H](CC1CCCCC1)OC(=O)C1CCCN1C#N` (stereo not given in full), the IC50 against Pro-cathepsin H was found to be 580 nM; at Cathepsin B, 310 nM; at Cathepsin K, 1.8 nM; on Procathepsin L it was 130 nM.

For `CC[C@@H](CC1CCCCC1)OC(=O)N1CCC(NC#N)C1` (stereo not given in full), it took 200 nM to reach half-maximal inhibition against Cathepsin K (IC50).

For `CC(C)(C)OC(=O)[C@@H]1CCCCN1C#N`, the IC50 against Cathepsin K is greater than 13000 nM.

Regarding `CC(C)(C)OC(=O)[C@H]1CCCN1C#N`, the IC50 against Cathepsin K stood at 300 nM.

The compound `CC(C)(C)OC(=O)N[C@@H]1CCN(C#N)C1` gave an IC50 against Cathepsin K of 200 nM.

As for `COC(=O)[C@@H]1CN(C#N)C[C@H]1c1ccc(OC)c(OC2CCCC2)c1`, 430 nM corresponded to half-maximal inhibition on Cathepsin K (IC50).

As for `C[C@@H](CC1CCCCC1)OC(=O)C1CCN1C#N` (stereo not given in full), the IC50 against Pro-cathepsin H was 40 nM; at Cathepsin B it was 2.4 nM; on Cathepsin K it was 0.048 nM; against Procathepsin L, 0.71 nM.

`CC(C)(C)OC(=O)[C@@H]1CCCN1C#N` showed a half-maximal inhibitory concentration (IC50) at Cathepsin K of 60 nM.

Regarding `CC(C)(C)OC(=O)N[C@H]1CCN(C#N)C1`, the IC50 against Cathepsin K was 81 nM.
